The values below come from US12029748B2, “Synergistic composition for maintenance of healthy balance of microflora” (KIMBERLY-CLARK WORLDWIDE, INC., priority 2017, dated 2024).

The nature of data set [1]: Solubility screening of the composition (visual precipitates or turbidity). Format: physicochemical. The following applies: for Solubility of the composition, 0.50%: nitrogen compound 0.50 wt/vol % with 1.0 wt/vol % α methyl-D glucoside in medium; for Solubility of the composition, 1.00%: nitrogen compound 1.00 wt/vol % with 1.0 wt/vol % α methyl-D glucoside in medium. The source says: Each composition in Table 1 went through initial screening measures of solubility and initial pH (“I pH”). […] When a specific concentration of a nitrogen containing compound was insoluble, the initial and final pH (“F pH”) of the combined composition was not measured and accordingly are each marked as “NM.” Additionally, initial pH of the composition was checked as a screening measure. The initial pH was marked as either Low (“L”), High (“H”), or Pass (“P”). A Low initial pH corresponds to an initial pH being less than 5.5, a High initial pH corresponds to an initial pH being greater than 6.5, and a Pass initial pH corresponds to the pH being at or between 5.5-6.5. […] As part of the Therapeutic Effect Protocol, a final pH was also measured after the compositions that were tested against the Lactobacillus and E. coli.
All of the ingredients in Table 2 were combined and the pH was adjusted to 6.5. […] To evaluate the effect of various nitrogen containing therapeutic agents on the growth of bacteria, the LAPT-g media, prepared as described above, was supplemented with various nitrogen containing compound therapeutic agents to a final test concentration between 0.1 and 1.0%. As initial screening measures, solubility and initial pH of each composition were checked. If a specific composition was insoluble (as detected by visual indication of precipitates or turbidity), then no further therapeutic efficacy testing was undertaken on that composition. Additionally, if the initial pH of the composition was below 5.5 (“Low”) or was above 6.5 (“High”), then no further therapeutic efficacy testing was undertaken on that composition.

Data set [2] can be described thus: Initial pH screening of the composition. In kind it is physicochemical. The note with it: for I pH (initial pH), 0.10%: nitrogen compound 0.10 wt/vol % with 1.0 wt/vol % α methyl-D glucoside in medium; for I pH (initial pH), 0.50%: nitrogen compound 0.50 wt/vol % with 1.0 wt/vol % α methyl-D glucoside in medium; for I pH (initial pH), 1.00%: nitrogen compound 1.00 wt/vol % with 1.0 wt/vol % α methyl-D glucoside in medium. Put shortly:
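Compounds were added to LAPT-g medium (pH adjusted to 6.5) at a final 0.1-1.0%. Solubility was judged visually by precipitate or turbidity, and insoluble compositions got no pH measurement. Initial pH was scored Low (<5.5), High (>6.5) or Pass (5.5-6.5), and only soluble Pass compositions went on to efficacy testing.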

The subject of data set [3] is L. crispatus and E. coli. The data set is described as follows: Therapeutic Effect Protocol: L. crispatus / E. coli co-culture, ratio after 36 hours. In kind it is cell-based, Lactobacillus crispatus; E. coli. The note with it: for Therapeutic Efficacy Results (Lactobacillus/E. coli) 0.10%: nitrogen compound 0.10 wt/vol % with 1.0 wt/vol % α methyl-D glucoside (10:1); for Therapeutic Efficacy Results (Lactobacillus/E. coli) 0.10% / Therapeutic Efficacy Results (Lactobacillus/E. coli) 0.50% / Therapeutic Efficacy Results (Lactobacillus/E. coli) 1.00%: 36 hours anaerobic co-culture, 37° C.; for Therapeutic Efficacy Results (Lactobacillus/E. coli) 0.50%: nitrogen compound 0.50 wt/vol % with 1.0 wt/vol % α methyl-D glucoside (2:1); for Therapeutic effect when ratio α methyl-D glucoside : nitrogen compound is at least about 2:1, but not at 1:1: ratio at least about 2:1, not 1:1; for Therapeutic Efficacy Results (Lactobacillus/E. coli) 1.00%: nitrogen compound 1.00 wt/vol % with 1.0 wt/vol % α methyl-D glucoside (1:1). Put shortly: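 L. crispatus and E. coli were mixed 1,000:1 (10^5-10^6 and 100-1,000 CFU per 5 mL tube) in LAPT-g medium at pH 6.5, containing 1% α-methyl-D-glucoside plus nitrogen compound at 0.1-1% w/v, in duplicate. After 36 h anaerobic incubation at 37 °C, each species was counted by selective plating (MRS anaerobic, TSA aerobic), and the L. crispatus:E. coli ratio and final pH were recorded.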

With `Nc1ncnc2nc[nH]c12` [Adenine], in data set [1] (nitrogen compound 0.10 wt/vol % with 1.0 wt/vol % α methyl-D glucoside in medium), the “Solubility of the composition, 0.10%” value is “Insol”. In data set [1], the “Solubility of the composition, 0.50%” value is on record as “Insol” and the “Solubility of the composition, 1.00%” value is given as “Insol”.

On to `Nc1ncnc2c1ncn2[C@@H]1O[C@H](CO)[C@@H](O)[C@H]1O` [Adenosine], for which, in data set [2], the “I pH (initial pH), 0.10%” value was “P (a Pass initial pH corresponds to the pH being at or between 5.5-6.5)” and the “I pH (initial pH), 0.50%” value is listed as “P (a Pass initial pH corresponds to the pH being at or between 5.5-6.5)”. Moreover, in data set [3], the “Therapeutic Efficacy Results (Lactobacillus/E. coli) 0.10%” value was <100 and the “Therapeutic Efficacy Results (Lactobacillus/E. coli) 0.50%” value is recorded as 0.97. Moreover, in data set [3] (with α methyl-D glucoside), the “Therapeutic effect when ratio α methyl-D glucoside : nitrogen compound is at least about 2:1, but not at 1:1” value was “provided a therapeutic effect”. Also, in data set [1], the “Solubility of the composition, 1.00%” value is given as “Insol”.

As to `NC(=O)NC1NC(=O)NC1=O` (stereo not shown) [Allantoin], in data set [2], the “I pH (initial pH), 0.10%” value was “P (a Pass initial pH corresponds to the pH being at or between 5.5-6.5)” and the “I pH (initial pH), 0.50%” value is on record as “P (a Pass initial pH corresponds to the pH being at or between 5.5-6.5)”. Further, in data set [3], the “Therapeutic Efficacy Results (Lactobacillus/E. coli) 0.10%” value came to 0.9 and the “Therapeutic Efficacy Results (Lactobacillus/E. coli) 0.50%” value is 1.37. Besides, the “Solubility of the composition, 1.00%” value in data set [1] was “Insol”.

For `NC(=O)C[C@H](N)C(=O)O` [L-Asparagine], in data set [2], the “I pH (initial pH), 0.10%” value was “P (a Pass initial pH corresponds to the pH being at or between 5.5-6.5)” and the “I pH (initial pH), 0.50%” value is listed as “P (a Pass initial pH corresponds to the pH being at or between 5.5-6.5)”. Further, in data set [3], the “Therapeutic Efficacy Results (Lactobacillus/E. coli) 0.10%” value was determined as 1.12 and the “Therapeutic Efficacy Results (Lactobacillus/E. coli) 0.50%” value was 1.72. Further, in data set [1], the “Solubility of the composition, 1.00%” value is “Insol”.

Turning to `N[C@@H](Cc1c[nH]cn1)C(=O)O` [L-Histidine], the “I pH (initial pH), 0.10%” value in data set [2] is given as “P (a Pass initial pH corresponds to the pH being at or between 5.5-6.5)”. In addition, the “Therapeutic Efficacy Results (Lactobacillus/E. coli) 0.10%” value in data set [3] is 1.11. Besides, in data set [1], the “Solubility of the composition, 0.50%” value is “Insol” and the “Solubility of the composition, 1.00%” value is given as “Insol”.

Regarding `CC[C@H](C)[C@H](N)C(=O)O` [L-Isoleucine], the “I pH (initial pH), 0.10%” value in data set [2] is on record as “P (a Pass initial pH corresponds to the pH being at or between 5.5-6.5)”. Besides, the “Therapeutic Efficacy Results (Lactobacillus/E. coli) 0.10%” value in data set [3] is 1.51. Further, in data set [1], the “Solubility of the composition, 0.50%” value is reported as “Insol” and the “Solubility of the composition, 1.00%” value was “Insol”.

As to `CC(C)C[C@H](N)C(=O)O` [L-Leucine], in data set [2], the “I pH (initial pH), 0.10%” value is “P (a Pass initial pH corresponds to the pH being at or between 5.5-6.5)” and the “I pH (initial pH), 0.50%” value is given as “P (a Pass initial pH corresponds to the pH being at or between 5.5-6.5)”. In data set [3], the “Therapeutic Efficacy Results (Lactobacillus/E. coli) 0.10%” value stood at 2.9 and the “Therapeutic Efficacy Results (Lactobacillus/E. coli) 0.50%” value was determined as 0.24. For the same compound, the “Therapeutic effect when ratio α methyl-D glucoside : nitrogen compound is at least about 2:1, but not at 1:1” value in data set [3] (with α methyl-D glucoside) is on record as “provided a therapeutic effect”. Also, the “Solubility of the composition, 1.00%” value in data set [1] is listed as “Insol”.

For `N[C@@H](Cc1ccccc1)C(=O)O` [L-Phenylalanine], in data set [2], the “I pH (initial pH), 0.10%” value is “P (a Pass initial pH corresponds to the pH being at or between 5.5-6.5)”. Also, in data set [3], the “Therapeutic Efficacy Results (Lactobacillus/E. coli) 0.10%” value came out at 0.09. Further, in data set [1], the “Solubility of the composition, 0.50%” value is “Insol” and the “Solubility of the composition, 1.00%” value was “Insol”.

On to `N[C@@H](Cc1c[nH]c2ccccc12)C(=O)O` [L-Tryptophan], for which, in data set [2], the “I pH (initial pH), 0.10%” value is reported as “P (a Pass initial pH corresponds to the pH being at or between 5.5-6.5)” and the “I pH (initial pH), 0.50%” value is reported as “P (a Pass initial pH corresponds to the pH being at or between 5.5-6.5)”. In data set [3], the “Therapeutic Efficacy Results (Lactobacillus/E. coli) 0.10%” value stood at 0.66 and the “Therapeutic Efficacy Results (Lactobacillus/E. coli) 0.50%” value was 0.06. For the same compound, the “Solubility of the composition, 1.00%” value in data set [1] is on record as “Insol”.

As to `CC(=O)N[C@@H]1C(O)O[C@H](CO)[C@@H](O)[C@@H]1O` (stereo partly drawn) [N-Acetyl-D-Mannosamine], in data set [2], the “I pH (initial pH), 0.10%” value was “P (a Pass initial pH corresponds to the pH being at or between 5.5-6.5)”; the “I pH (initial pH), 0.50%” value is “P (a Pass initial pH corresponds to the pH being at or between 5.5-6.5)”; the “I pH (initial pH), 1.00%” value is “P (a Pass initial pH corresponds to the pH being at or between 5.5-6.5)”. Besides, in data set [3], the “Therapeutic Efficacy Results (Lactobacillus/E. coli) 0.10%” value is listed as 0.854, the “Therapeutic Efficacy Results (Lactobacillus/E. coli) 0.50%” value was 100 and the “Therapeutic Efficacy Results (Lactobacillus/E. coli) 1.00%” value came to 0.02. For the same compound, the “Therapeutic effect when ratio α methyl-D glucoside : nitrogen compound is at least about 2:1, but not at 1:1” value in data set [3] (with α methyl-D glucoside) is on record as “provided a therapeutic effect”.

`c1cncnc1` [Pyrimidine]: in data set [2], the “I pH (initial pH), 0.10%” value is “P (a Pass initial pH corresponds to the pH being at or between 5.5-6.5)”; the “I pH (initial pH), 0.50%” value is on record as “P (a Pass initial pH corresponds to the pH being at or between 5.5-6.5)”; the “I pH (initial pH), 1.00%” value is “P (a Pass initial pH corresponds to the pH being at or between 5.5-6.5)”. Besides, in data set [3], the “Therapeutic Efficacy Results (Lactobacillus/E. coli) 0.10%” value is on record as 245, the “Therapeutic Efficacy Results (Lactobacillus/E. coli) 0.50%” value is >4760 and the “Therapeutic Efficacy Results (Lactobacillus/E. coli) 1.00%” value was 4.05. Also, the “Therapeutic effect (ratio of Lactobacillus to E. coli greater than 2) at each concentration tested” value in data set [3] (with α methyl-D glucoside, nitrogen compound 1 wt/vol %, 0.5 wt/vol % and 0.1 wt/vol %) is given as “provided a therapeutic effect”. Also, the “Therapeutic effect when ratio α methyl-D glucoside : nitrogen compound is less than 2:1 (1:1)” value in data set [3] (with α methyl-D glucoside, ratio 1:1) is “provided a therapeutic effect”.

Take `O=c1cc[nH]c(=O)[nH]1` [Uracil]: in data set [2], the “I pH (initial pH), 0.10%” value is recorded as “P (a Pass initial pH corresponds to the pH being at or between 5.5-6.5)”. For the same compound, the “Therapeutic Efficacy Results (Lactobacillus/E. coli) 0.10%” value in data set [3] stood at 0.43. Moreover, in data set [1], the “Solubility of the composition, 0.50%” value is “Insol” and the “Solubility of the composition, 1.00%” value is given as “Insol”.
